Molecules are shown by their SMILES.

The subject of test [1] is neuropathic rats (chronic constriction injury). Briefly: Cold allodynia response (cold bath assay) in neuropathic (chronic constriction injury) rats. Format: in vivo, rat. As to the method:
This experiment was conducted to evaluate the effects of 4-(2-benzofuran-7-yl-5-oxo-oxazol-4-ylidenemethyl)-N-phenyl-piperazine-1-carboxamidine hydrochloride, and similar or related compounds, on the cold allodynia response in neuropathic rats. The test apparatus and methods of behavioral testing is described in Gogas et al. (1997) Analgesia 3:111-118.
Male Sprague-Dawley rats (Harlan), 160-200 g, were surgically prepared to have a chronic constriction injury (CCl) as described above 6 days prior to testing. Rats were selected for the study according to the following criteria: 1) the average of two trials was less than or equal to 13 sec; and 2) there was consistency across the two trial scores. Animals were screened for hypersensitivy to cold on post-surgery days 4 through 10, and selected for inclusion in dose-response studies based on the criteria described above. The pre-dose screening values were used as the animals' baseline cold allodynia scores.
Selected rats were tested twice in the cold bath assay described above for a pre-dose baseline and randomly assigned to treatment groups and dosed at 0 (vehicle, 10 ml/kg, 0.5% CMC, 30, 100 or 300 μg/kg, i.p. After 1 hour and 3 hours post-dosing, rats were tested in the cold bath assay. For each rat, the assay was run once at 1 and 3 hours post-dose. The time to raise the rear leg was recorded in each trial. The maximal observing time in each trial was 20 seconds.
Male Sprague-Dawley rats (Harlan), 160-270 g, were surgically prepared to have a chronic constriction injury (CCl) as described above 5 days prior to testing. Rats were selected and tested as described in Example 3. Selected rats were dosed at 0 (vehicle, 10 mL/kg, deionized water), 30 or 300 μg/kg, i.p. After 20 min and 40 minutes post-dosing, rats were tested in the cold bath assay.
Male Sprague-Dawley rats (Harlan), 170-270 g, were surgically prepared to have a chronic constriction injury (CCl) as described above 14 days prior to testing. Rats were selected and tested as described in Example 3. Selected rats were dosed at 0 (vehicle, 10 mL/kg, deionized water), 30 or 300 μg/kg, i.p. After 20 min and 40 minutes post-dosing, rats were tested in the cold bath assay.
(§1) Heat and cold allodynia responses can be evaluated as described below in rats having a chronic constriction injury (CCl). A unilateral mononeuropathy is produced in rats using the chronic constriction injury model described in Bennett et al. (1988) Pain 33:87-107.
(§2) CCl is produced in anesthetized rats as follows. The lateral aspect of each rat's hind limb is shaved and scrubbed with Nolvasan. Using aseptic techniques, an incision is made on the lateral aspect of the hind limb at the mid-thigh level. The biceps femoris is bluntly dissected to expose the sciatic nerve. On the right hind limb of each rat, four loosely tied ligatures (for example, Chromic gut 4.0; Ethicon, Johnson and Johnson, Somerville, N.J.) are made around the sciatic nerve approximately 1-2 mm apart. On the left side of each rat, an identical dissection is performed except that the sciatic nerve is not ligated (sham). The muscle is closed with a continuous suture pattern with, e.g., 4-0 Vicryl (Johnson and Johnson, Somerville, N.J.) and the overlying skin is closed with wound clips. The rats are ear-tagged for identification purposes and returned to animal housing.

For test [2], the target named is T1, alpha1B adrenergic receptor (Homo sapiens, UniProt P35368).
T1 construct: expressed in transfected cells; host or cells: CHO-K1
T1 sequence (P35368 1-520): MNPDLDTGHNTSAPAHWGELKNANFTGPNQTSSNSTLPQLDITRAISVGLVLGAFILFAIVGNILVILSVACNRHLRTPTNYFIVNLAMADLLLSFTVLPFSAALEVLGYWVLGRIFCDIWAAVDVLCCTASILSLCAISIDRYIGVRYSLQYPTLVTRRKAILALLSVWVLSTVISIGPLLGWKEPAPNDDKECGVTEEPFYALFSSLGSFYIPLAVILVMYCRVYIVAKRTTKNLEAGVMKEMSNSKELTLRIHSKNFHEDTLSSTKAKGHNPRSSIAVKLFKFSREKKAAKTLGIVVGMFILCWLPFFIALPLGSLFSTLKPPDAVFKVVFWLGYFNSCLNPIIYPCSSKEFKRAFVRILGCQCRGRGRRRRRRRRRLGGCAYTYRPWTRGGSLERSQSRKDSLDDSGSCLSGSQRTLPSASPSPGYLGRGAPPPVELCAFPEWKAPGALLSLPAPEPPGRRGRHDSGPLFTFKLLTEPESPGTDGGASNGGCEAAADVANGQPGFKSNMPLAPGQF
Kind of test: [3H]prazosin radioligand binding on membranes of alpha1 adrenergic receptor transfected CHO-K1 cells. As to conditions: methods of Example 1: alpha1A, alpha1B and alpha1D transfected CHO-K1 cells. On the procedure:
Alpha1A, alpha1B and Alpha1D adrenergic receptor transfected CHO-K1 cells, prepared using the methods described in Chang et al. (1998) FEBS Lett. 422:279-283, were grown to confluence in T-162 tissue culture flasks in Ham's F-12 culture medium supplemented with 10% fetal bovine serum, geneticin (150 μg/ml) and streptomycin: penicillin (30 μg/ml:30 μg/ml) at 37° C. in 7% CO2. Cells were harvested by incubating with phosphate-buffered saline (PBS) containing 30 μM EDTA for 5-10 min at 37° C. Cells were pelleted by centrifuging at 500×g for 5 min, the pelleted cells were homogenized (Polytron homogenizer) in 10 vols (w/v) of 50 mM Tris, 1 mM EDTA, (homogenisation buffer, pH 7.4 at 4° C.). The homogenate was centrifuged at 45,000×g for 20 min. […]
The membranes were thawed at room temperature and diluted in assay buffer (50 mM Tris, pH 7.4) at 37° C. and homogenized using the Polytron tissue disrupter. […] Scintillation cocktail was added to the filter plates and bound radioligand determined by liquid scintillation spectrophotometry.
For each experiment, total binding (in the absence of any test or reference compounds) and non specific binding (10 μM phentolamine) were determined. […] If the radioligand KD was known, the inhibition dissociation constant (Ki) of each ligand was determined according to the method of Cheng et al. (1973) Biochem. Pharmacol. 22:3099-3108).

The test system of test [3] is neuropathic rats (chronic constriction injury). Kind of test: Pain response to radiant heat in neuropathic (chronic constriction injury) rats. Format: in vivo, rat. As to conditions: CCI rats. On the procedure:
Male Sprague-Dawley rats (Harlan), 240-300 g, were surgically prepared to have a chronic constriction injury (CCl) as described above 13-15 days prior to testing. Rats were selected for the study according to the following criteria: ligated leg (LL)latency−4 to 14 seconds; sham leg (LS) latency−6 to 18 seconds; difference (LDiff=LL−LS)−greater than 1.5 seconds. Selected rats were randomly assigned to treatment groups and dosed at 0 (vehicle, 10 ml/kg, 0.5% CMC, 30, 60, 100 or 300 μg/kg, i.p. After 45 minutes post-dosing, rats were placed under inverted plastic cages on an elevated glass platform. Following 15 minutes of acclimatization, a radiant heat source, e.g., light was placed below the glass and illuminated in order for the glass to reach a temperature of 80-82° F. For each rat, four trials of each of the following were performed: shone light on the left hind paw (sham) and recorded the latency when the paw was withdrawn; shone light on the right hind paw (ligated) and recorded the latency when the paw was withdrawn. Five minute intervals were allowed between trials. Hind paws were examined for redness and blistering after each test.
Male Sprague-Dawley rats (Harlan), 240-300 g, were surgically prepared to have a CCl as described above 19-21 days prior to testing. Rats were selected for the study according to the following described in Example 2. Selected rats were randomly assigned to treatment groups and dosed with 4-(2-naphthalen-1-yl-5-oxo-oxazol-4-ylidenemethyl)-N-phenyl-piperazine-1-carboxamidine at 0 (vehicle, 10 mL/kg deionized water, 30, 60, 100, 300 or 1000 μg/kg, i.p. After 1 hour post-dosing, rats were tested as described in Example 2.
as §1, §2

Where [4] appears, read: 300 μg/kg i.p., 40 min post-dose.
Setting [5] is: 100 μg/kg i.p., 1 hour post-dose, p<0.01.
Setting [6] is: 300 μg/kg i.p., 1 hour post-dose, p<0.01.
Setting [7] is: 300 μg/kg i.p., 3 hours post-dose, p<0.05.
[8] abbreviates: 60 μg/kg i.p., about 1 hour post-dosing.
Where [9] appears, read: 100 μg/kg i.p., about 1 hour post-dosing.
Where [10] appears, read: 300 μg/kg i.p., about 1 hour post-dosing.

Turning to `Cc1c[nH]c(=O)n(CCCN2CCN(c3ccccc3OCC(F)(F)F)CC2)c1=O` [3-(3-{4-[2-(2,2,2-trifluoroethoxy)phenyl]-piperazin-1-yl}propyl)-5-methyl-2,4(1H,3H)-pyrimidinedione, reference compound], in test [1] (setting [4]), the “cold allodynia: change in latency from pre-dose compared to vehicle group” value is given as “significant changes” and the “cold allodynia: latency times compared to vehicle control” value was “significant increase in latency times”.

`Cl.N=C(Nc1ccccc1)N1CCN(C=C2N=C(c3cccc4ccoc34)OC2=O)CC1` [4-(2-benzofuran-7-yl-5-oxo-oxazol-4-ylidenemethyl)-N-phenyl-piperazine-1-carboxamidine hydrochloride]: the “identification as selective alpha1B adrenergic receptor antagonist” value in test [2] is “identified as selective alpha1B adrenergic receptor antagonists”. The “cold allodynia: actual latency times compared to vehicle” value in test [1] (setting [5]), in test [1] (setting [6]) and in test [1] (setting [7]) was “significantly higher than vehicle” each time. Besides, the “cold allodynia: changes from pre-dose compared to vehicle” value in test [1] (setting [5]), in test [1] (setting [6]) and in test [1] (setting [7]) was “significantly higher than vehicle” in each case. For the same compound, the “effect in the radiant heat assay (paw withdrawal latency)” value in test [3] (setting [8]), in test [3] (setting [9]) and in test [3] (setting [10]) was “significant effect” in each case.

For the compound `N=C(Nc1ccccc1)N1CCN(C=C2N=C(c3cccc4ccccc34)OC2=O)CC1` [4-(2-naphthalen-1-yl-5-oxo-oxazol-4-ylidenemethyl)-N-phenyl-piperazine-1-carboxamidine], in test [2], the “identification as selective alpha1B adrenergic receptor antagonist” value is “identified as a selective alpha1B adrenergic receptor antagonist”. Further, the “cold allodynia: change in latency from pre-dose compared to vehicle group” value in test [1] (30 μg/kg i.p., 20 min post-dose) is on record as “significant increase in latency from pre-dose”; in test [1] (300 μg/kg i.p., 20 min post-dose), “significant increase in latency from pre-dose”; in test [1] (setting [4]) it was “significant change from pre-dose”. The “cold allodynia: latency times compared to pre-dose” value in test [1] (setting [4]) is on record as “significant increase in latency”; in test [1] (20 min post-dose, i.p. (doses tested 30 or 300 μg/kg; dose not given)) it was “significant change in latency times”. Besides, the “effect in the radiant heat assay (paw withdrawal latency)” value in test [3] (setting [8]) is “significant effect”; in test [3] (setting [9]) it was “significant effect”; in test [3] (setting [10]), “significant effect”; in test [3] (1000 μg/kg i.p., 1 hour post-dosing), “significant effect”.
